Measured values reported in patent US20180338897A1, “ORAL COMPOSITIONS FOR REDUCING DENTAL STAINS” (New York University, priority 2017, published 2018).

Experiments:
[1] = Destaining of boiling beads stained with tannic acid and iron(III) chloride (Example 2); conditions: for Destaining: Experiment #1, 10 mL 0.1M solution on stained boiling beads; for Removal of stains (conclusion): Experiments #1 and #2, comparison with EDTA
Experimental: To simulate the effects of staining caused by coffee and tea, tannic acid and iron(III) chloride solutions were prepared.
To prepare the tannic acid solution, solid tannic acid was used. 0.1M FeCl3.6H2O and added to 100 mL of distilled water. 0.1 M solutions of MOPS buffer was prepared. Then 0.1M solutions of EDTA in distilled water, C-2 in MOPS, C-6 in MOPS, and deferiprone in MOPS, were prepared. For a tooth like structure, boiling beads made from synthetic silicate were used.
Methods were as follows: Experiment #1: Comparison of EDTA, C-2, and deferiprone destaining: The procedure was broken down into 2 phases: staining and destaining. In the staining phase, 7 beads were added to each of the 12 vials. 3 vials were labeled control, 3 were labeled EDTA, 3 were labeled C-2, and 3 were labeled Deferiprone. 0.1 mL of the tannic acid and iron(III) chloride were pipetted onto the boiling beads in the vials. After mixing, 9.8 mL of 0.1 M, pH 7 MOPS was added. The vials were left to stand for a week at room temperature to complete the staining. For the destaining phase, the liquid in each vial was discarded and the beads were rinsed with distilled water 3 times. Then the solutions were added to the vials according to Table 1, swirled and left for the destaining phase.
Experiment #2: Comparison of deferiprone, C-2, and C-6 destaining: The same procedure was followed for Experiment 2 except EDTA was replaced with C-6 solution.

[2] = test system: yeast; test: Yeast growth curve in liquid YPD media, absorbance at 400 nm; format: cell-based, Saccharomyces cerevisiae; conditions: for Final absorbance / Initial absorbance: 400 nm; for Final absorbance: after 24 hr; for Effect on yeast growth: growth curve over 24 hr, FIG. 8; for Initial absorbance: start of growth curve
Experimental: (§1) The following materials were used: peptone, dextrose/glucose, marmite/yeast extract, agar, 0.1 M EDTA in MOPS solution, 0.1 M C-2 in MOPS solution, 0.1 M C-6 in MOPS solution, and […] Deferiprone in MOPS solution, and water.
(§2) The yeast culture was prepared by adding dry baker's yeast to warm water and streaked on the media plates. Cultures were allowed to grow for 16-24 hours.
The growth curve experiment were carried out by measuring the inhibition of yeast culture in the presence of EDTA, C-2, C-6, and Deferiprone over time via absorbance at 400 nm (see FIG. 8).
The growth curve was used to measure the rate of growth of yeast over an 8 hour period with a final measurement after 24 hours. No growth is seen in the presence of EDTA. C-2, C-6, and Deferiprone show different levels of effectiveness (see FIG. 8).

[3] = test system: yeast; test: Disk diffusion on YPD agar plates with yeast cultures; format: cell-based, Saccharomyces cerevisiae; conditions: plates incubated at 30° C.
Experimental: as §1
Plate media was prepared containing 2% dextrose, 2% peptone, 0.36 g of yeast extract, and 1.5% agar in 1 L of water. The mixture was heated to dissolve the ingredients, and then autoclaved. 10 mL of the media was added to petri dishes to prepare plates.
as §2
Disks to which C-2, C-6, EDTA, or Deferiprone were added were added to petri dishes containing yeast cultures. The plates were incubated at 30° C. The effect on yeast growth was visualized and measured over time. The zone sizes were measured to the nearest millimeter using a ruler or caliper, including the diameter of the disk in the measurement. The measurements were rounded up to the nearest millimeter.

[4] = test system: yeast (Saccharomyces cerevisiae); test: Inhibition of yeast growth when prepared with dextrose-agar plates; format: cell-based
Source text: The compounds of the present disclosure can reduce stains from the surfaces of teeth. The present compounds may also have anti-microbial activity. […] Thus, the compounds and compositions of the present disclosure may be used for reduction of teeth stains and/or as antimicrobials.

[5] = Destaining of stained beads and sand white quartz (Example 3); conditions: for Relative destaining effectiveness: comparison of C11, EDTA and Deferiprone
Experimental: Tannic acid and iron chloride solutions were prepared as in Example 2. In order to simulate a tooth like structure, boiling beads made from a synthetic silicate (Techniservice) and white quartz sand were used. Four vials were prepared with the following solutions and solids (Table 3).
0.1 mL of the tannic acid and iron(III) chloride were pipetted into each vial. They were mixed on a vortex for 10 seconds. Then, 9.8 mL of 0.1 M, pH 7.4 MOPS was added to each vial to adjust the pH to a neutral level. MOPS was used to mimic the pH of saliva. The contents were mixed again. […] The vials were left to stand for a week at room temperature. The following table (Table 4) summarizes the components added to the tooth-like solids.
The solids in the vials were washed with approximately 10 mL of MOPS. This step was to simulate a wash of the “tooth” like structure with a “saliva” like buffer. The vials were left for a week to allow time for unstained areas of the beads to stain.
After the structures were stained, experiments were carried out to test if the stains could be removed. Approximately 5 mL of C11 (1-(11′-Carboxydecyl)-3-Hydroxy-2-Methyl-4-Pyridinone) solution was pipetted into Vials #1 and #3. Vials #2 and #4 served as controls. The contents of the vials were then mixed by vortexing. The vials were left to de-stain for a week. After a week, the liquid was drained from the vials and a fresh 5 mL of C11 was pipetted. Vials were left to de-stain for another week.
EDTA was prepared as follows. 100 mM of EDTA was made by adding 9.164 g to 250 mL of deionized water. The solution was stirred for 10 minutes, then placed on a heater.
Three new vials were filled with 2.2346 g, 2.0195 g, 2.2600 g of beads followed by the salt (0.1 mL), then the tannic acid (0.1 mL), and finally the MOPS. […] Three other vials were filled with 2.115 g, 2.009 g, 2.115 g of sand white quartz and the solutions were added in sequence. […] The solutions were left to continue to stain for a week. After a week, all the vials were rinsed with 10 mL of MOPS. Supernatant was removed by using filter paper. 10 mL of MOPS was then added and the contents were stirred then left to sit for a week.
1 mL of the EDTA was pipetted into each vial. The resulting concentration was 0.01 M of EDTA in each vial. Vials were then mixed to ensure proper contact with the MOPS and EDTA molecules. Vials were left to sit for a week.
Two more pairs of vials (4th and 5th pairs) were prepared—one with the beads and the other with the sand. MOPS solution was added, but not EDTA. […] Two more pairs of vials (6th and 7th pairs) were prepared, again, one with beads and the other with sand. The purpose of these controls was to test if the destaining process could be accelerated. The EDTA concentration was increased from 0.01 M to 0.1 M and 10 mL of it was subsequently added to the vials along with 10 mL of MOPS.
(§3) 0.1 M of Deferiprone solution was made by mixing 1.3957 g and 100 mL of distilled water into a volumetric flask. […] The tables below (Table 5 and Table 6) summarizes the contents of the vials used in this part of the experiment.
These vials were left to stand for a week. After the week the vials were rinsed with distilled water until the liquid that the beads/sand were suspended in were clear.
The next set of experiments was carried out to determine how quickly the compositions were able to remove the stains.
Beads and sand solutions were rinsed with 10 mL of distilled water. […] The solutions were prepared as follows: (Table 11).

[6] = Dissolution of deferiprone in distilled water; format: physicochemical; conditions: 0.1 M in distilled water; room temperature; magnetic bar
Experimental: as §3

| Compound | Destaining [1] | Removal of stains (conclusion) [1] | Final absorbance [2] | Effect on yeast growth [2] | Zone diameter (including the disk) [3] | Growth of yeast ([4]; 0.001 M) | Relative destaining effectiveness [5] | Initial absorbance [2] | further results |
| --- | --- | --- | --- | --- | --- | --- | --- | --- | --- |
| Cc1c(O)c(=O)ccn1CC(=O)O [C-2, 1-Carboxymethyl-3-Hydroxy-2-Methyl-Pyrid-4-one] | Destaining was immediately noted | effective in removal of stains and act to remove stains faster than EDTA | 1.761 | effective, although the effect was less than EDTA and Deferiprone | 1.55 cm | inhibited the growth of yeast | – | – | – |
| Cc1c(O)c(=O)ccn1CCCCCC(=O)O [C-6, 1-(6′-Carboxypentyl)-3-Hydroxy-2-Methyl-4-Pyridinone] | – | effective in removal of stains and act to remove stains faster than EDTA | 1.840 | effective, although the effect was less than EDTA and Deferiprone | 1.45 cm | inhibited the growth of yeast | – | – | – |
| Cc1c(O)c(=O)ccn1C [Deferiprone, 3-hydroxy-1,2-dimethylpyridin-4(1H)-one] | Destaining was immediately noted | effective in removal of stains and act to remove stains faster than EDTA | 0.762 | – | – | – | most effective | 0.389 | Duration of effective destaining ([5]; speed experiment, all Deferiprone dilutions (10 mL, 1 mL, 0.1 mL, 0.01 mL of 0.1M)): For about an hour the destaining for all the vials except the controls continued to be effective; Stain removal immediately after addition ([5]; speed experiment, vials A3 and B3, 10 mL of 0.1M Deferiprone): the stains were removed; Stained removed? ([5]; vial A2: beads, 10 mL of 0.1M deferiprone, after a week): Yes; Stained removed? ([5]; vial A3: beads, 1 mL of 0.1M deferiprone & 9 mL of distilled water, after a week): Yes; Stained removed? ([5]; vial B2: sand white quartz, 10 mL of 0.1M deferiprone, after a week): Yes; Stained removed? ([5]; vial B3: sand white quartz, 1 mL of 0.1M deferiprone & 9 mL of distilled water, after a week): Yes; Discoloration of the solution after addition ([5]; vials A2 and B2 (beads, sand), 10 mL of 0.1M deferiprone): immediate discoloration; Discoloration of the solution after addition ([5]; vials A3 and B3 (beads, sand), 1 mL of 0.1M deferiprone & 9 mL of distilled water): relatively slower discoloration; Growth of yeast ([4]; 0.003 M): inhibited the growth of yeast; Solubility [6]: slow solubility was observed |
| O=C(O)CN(CCN(CC(=O)O)CC(=O)O)CC(=O)O [EDTA, ethylenediaminetetraacetic acid] | slight difference after 15 minutes | – | 0.481 | No growth | – | – | followed by EDTA | 0.375 | Destaining of beads ([5]; 0.01 M EDTA in MOPS, beads, after a week): partially destained; Destaining of sand (colour of solution) ([5]; 0.01 M EDTA in MOPS, white quartz sand, after a week): solutions were clear; Bleaching of beads and sand ([5]; EDTA 0.01 M to 0.1 M, beads and sand, after over a month): most of the beads and sand were bleached |
